Structures can show the parent of a compound that is named as a salt.
Molecular target: T1, abc isoform of human TMEM16A channel expressed in CHO cells (Homo sapiens, UniProt Q5XXA6, DEL476-501)
T1 construct: expressed in transfected cells; host or cells: CHO cells, doxycycline-inducible expression under Blasticidin/Zeocin selection
T1 sequence (Q5XXA6 with tags, fused parts or gaps isoform Q5XXA6-5 DEL539-564): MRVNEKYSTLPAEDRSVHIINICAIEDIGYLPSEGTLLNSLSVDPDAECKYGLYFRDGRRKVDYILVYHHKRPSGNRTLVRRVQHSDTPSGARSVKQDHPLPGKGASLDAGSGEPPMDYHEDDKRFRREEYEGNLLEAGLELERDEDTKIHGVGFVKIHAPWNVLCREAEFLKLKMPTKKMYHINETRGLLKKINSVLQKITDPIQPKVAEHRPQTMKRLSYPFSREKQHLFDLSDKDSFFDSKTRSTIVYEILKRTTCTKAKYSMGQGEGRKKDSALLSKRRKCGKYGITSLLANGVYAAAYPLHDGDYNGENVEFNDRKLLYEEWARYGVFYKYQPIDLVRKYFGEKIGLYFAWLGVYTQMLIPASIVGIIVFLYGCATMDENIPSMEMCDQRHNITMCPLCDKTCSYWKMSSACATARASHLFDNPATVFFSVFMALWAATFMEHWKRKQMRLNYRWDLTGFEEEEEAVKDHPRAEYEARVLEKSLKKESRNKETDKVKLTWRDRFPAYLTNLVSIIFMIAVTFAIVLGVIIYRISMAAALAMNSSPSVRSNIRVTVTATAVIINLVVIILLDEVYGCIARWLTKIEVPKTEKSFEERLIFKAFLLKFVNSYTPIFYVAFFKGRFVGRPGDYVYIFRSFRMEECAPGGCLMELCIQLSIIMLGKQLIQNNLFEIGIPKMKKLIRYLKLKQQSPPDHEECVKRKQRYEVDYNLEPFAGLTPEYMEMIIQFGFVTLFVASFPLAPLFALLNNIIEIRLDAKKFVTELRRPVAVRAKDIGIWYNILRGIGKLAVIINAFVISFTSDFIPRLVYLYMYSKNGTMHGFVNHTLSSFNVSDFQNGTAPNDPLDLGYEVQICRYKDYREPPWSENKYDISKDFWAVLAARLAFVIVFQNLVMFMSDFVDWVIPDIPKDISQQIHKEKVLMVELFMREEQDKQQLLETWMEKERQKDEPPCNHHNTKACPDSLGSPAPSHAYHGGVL
Experiment: Automated patch clamping (QPatch) assay to measure TMEM16A activity in whole-cell
Format: cell-based
Conditions: for EC50: CHO cells expressing human TMEM16A (abc), whole-cell automated patch clamp, Hill fit, read-out: TMEM16A QPATCH assay EC50 V3 EC50; for Emax: CHO, maximum current at highest dose relative to reference potentiator at maximal concentration (upper limit) and vehicle (lower limit), read-out: TMEM16A QPATCH assay EC50 V3 Assay Window (% TMEM16A max activation)
Description: Automated Patch Clamping Assay to Measure TMEM16A Activity in Whole-Cell
Chinese hamster ovary cells (CHO) cells expressing abc isoform of human TMEM16A channel (Ref) were grown in vented cell-culture flasks (Corning) containing cell culture medium (1×F-12 Ham, 10% FBS, 1% Penicillin-streptomycin, 5 μg/mL Blasticidin S HCl, 400 μg/mL Zeocin), maintained at 37° C. in an incubator with 5% C02, 95% 02 and 100% humidity. The cells were passaged every 2-3 days at 80-90% confluence by aspirating the cell culture medium, washing twice with 10 mL D-PBS then incubating with 4 mL Trypsin-EDTA for no longer than 5 minutes. Trypsin was neutralized with the addition of 32 mL growth medium to the cell suspension, the cells were counted using a viable-cell counter (Vi-CELL; Beckmann-Coulter) and new flasks were seeded at a cell density of 0.01, 0.02, or 0.05×10^6 cells per cm2 for 3, 2, or 1 day(s) growth, respectively. Cell suspension was diluted in the new 175 cm2 flask with 50 mL of growth medium. Doxycycline was used to induce the expression of TMEM16A channel protein and was added directly to the culture flask 18-24 hours in advance of assay at a final concentration of 1 μg/mL. Induced cells were washed with D-PBS and detached from their culture flasks by adding 10 mL of Detachin and incubating for 10 minutes. Once detached, 5 mL of QPatch assay medium (1×CHO-S-SFM II (Sigma), 25 mM HEPES) was added and the resultant cell suspension counted using the Vi-CELL viable cell counter. The optimal cell density for this QPatch assay is 2-5×1 06 cells/mL; re-adjusted as necessary with QPatch assay medium.
The ion channel activity of TMEM16A (abc) expressed in CHO cells was assed using an automated patch clamp system (Qpatch, Sophion). These systems use planar patch-clamp technology to enable high-resistance, continuous whole-cell recordings from multiple cells in parallel, whilst maintaining each individual cell as an isolated experiment. First, each well was primed with intracellular and extracellular solutions described below. Cells were spun down, washed and then resuspended using extracellular solution. Intracellular solution: 130 mM N-methyl-D-glucamine, 10 mM EGTA, 20 mM CaCl2, 1 mM MgCl2, 10 mM HEPES 10, 10 mM BAPTA, 99 mM Sucrose, 2 mM Mg-ATP, pH 7.3, 320 mOsm Extracellular solution: 130 mM N-methyl-D-glucamine, 10 mM EGTA, 20 mM CaCl2, 1 mM MgCl2, 10 mM HEPES 10, 10 mM BAPTA, 99 mM Sucrose, 2 mM Mg-ATP, pH 7.3, 320 mOsm. Resuspended cells were then added to each well and suction was applied from the intracellular side in order to position a cell on the chip aperture, form a high resistance (GO) seal and achieve a whole-cell recording configuration. Following successful whole cell access, cell membranes were maintained at a voltage of −70 mV until the voltage protocol is applied. From this voltage, membranes were depolarized to +70 mV for 1500 ms, and then hyperpolarized to […] before being depolarized again from −90 to +70 mV in a continuous ramp waveform. At the end of the ramp, the membrane voltage is stepped back to −70 mV until the next waveform was applied. Compounds were dissolved at 10 mM in 100% DMSO and then diluted into extracellular solution (0.3% DMSO final) to the desired final concentration. The assay lower and upper limit were defined as follow, average amplitude (nA) of the last 3 sweeps in the vehicle addition of each cell was considered the basal current (lower limit); the average maximum current response in 3 cells for a reference potentiator at maximal concentration (upper limit). Current values for each compound concentration were then plotted against […]. EC50 curves are fitted to concentration-response data using curve-fitting functions (Hill fit) within the QPatch software. Curve fitting is constrained between the lowest concentration (vehicle-only addition) and the highest current value measured within the concentration range. […]

| EC50 [nM] | Emax [%] | SMILES |
| --- | --- | --- |
| 160 | 150 | CCOC(=O)[C@H](CC(C)C)NC(=O)c1cc(-c2cccc(-c3ncc(C(=O)NC(CC)CC)o3)c2)[nH]n1 [Example 3.60, (S)-Ethyl 4-Methyl-2-(5-(3-(5-(Pentan-3-Ylcarbamoyl)Oxazol-2-Yl)Phenyl)-1H-Pyrazole-3-Carboxamido)Pentanoate Trifluoroacetate] |
| 410 | 100 | CCC(CC)NC(=O)c1cc(-c2cccc(-c3ncc(C(=O)N[C@H](C(=O)OC)c4ccccc4)o3)c2)[nH]n1 [Example 1.15, (S)-Methyl 2-(2-(3-(3-(Pentan-3-Ylcarbamoyl)-1H-Pyrazol-5-yl)Phenyl)Oxazole-5-Carboxamido)-2-Phenylacetate] |
| 20 | 142 | CCOC(=O)[C@@H](NC(=O)c1cnc(-c2cccc(-c3nnc(C(=O)NC(C4CC4)C4CC4)[nH]3)c2)o1)C(C)C [Example 12.6, (S)-Ethyl 2-(2-(3-(5-((Dicyclopropylmethyl)Carbamoyl)-4H-1,2,4-Triazol-3-Yl)Phenyl)Oxazole-5-Carboxamido)-3-Methylbutanoate] |
| 90 | 167 | COC(=O)[C@@H](NC(=O)c1cnc(-c2cccc(-c3cc(C(=O)NC(C4CC4)C4CC4)n(CCO)n3)c2)o1)C(C)C [Example 4.3, (S)-Methyl 2-(2-(3-(5-((Dicyclopropylmethyl)Carbamoyl)-1-(2-Hydroxyethyl)-1H-Pyrazol-3-Yl)Phenyl)Oxazole-5-Carboxamido)-3-Methylbutanoate] |
| 30 | 90 | CCCC(CCC)NC(=O)c1cc(-c2cccc(-c3ncc(C(=O)NC(CC)CC)o3)c2)[nH]n1 [Example 3.2, 2-(3-(3-(Heptan-4-Ylcarbamoyl)-1 H-Pyrazol-5-Yl)Phenyl)-N-(Pentan-3-yl)Oxazole-5-Carboxamide] |
| 800 | 83 | CCC(CC)NC(=O)c1cc(-c2cccc(-c3ncc(C(=O)NC4CCCC4)o3)c2)[nH]n1 [Example 1.2] |
| 390 | 72 | C[C@H](NC(=O)c1nnc(-c2cccc(-c3ncc(C(=O)NC4(C5CC5)CC4)o3)c2)[nH]1)C1CC1 [Example 12.15] |
| 580 | 177 | CCC(CC)NC(=O)c1cnc(-c2cccc(-c3nnc(C(=O)N[C@@H](C)C4CC4)[nH]3)c2)o1 [Example 14.0, (S)-2-(3-(5-((1-Cyclopropylethyl)Carbamoyl)-4H-1,2,4-Triazol-3-Yl)Phenyl)-N-(Pentan-3-Yl)Oxazole-5-Carboxamide] |
| 490 | 43 | CCC(CC)NC(=O)c1cnc(-c2cccc(-c3cc(C(=O)Nc4cccc(OC(F)(F)F)c4)n[nH]3)c2)o1 [Example 3.14, N-(Pentan-3-Yl)-2-(3-(3-((3-(Trifluoromethoxy)Phenyl)Carbamoyl)-1 H-Pyrazol-5-Yl)Phenyl)Oxazole-5-Carboxamide] |
| 270 | 76 | CCC(CC)NC(=O)c1cnc(-c2cccc(-c3cc(C(=O)NCC(C)(C)OC)n[nH]3)c2)o1 [Example 3.12, 2-(3-(3-((2-Methoxy-2-Methylpropyl)Carbamoyl)-1H-Pyrazol-5-Yl)Phenyl)-N-(Pentan-3-Yl)Oxazole-5-Carboxamide] |
| 270 | 77 | COC(=O)[C@H](CC(C)C)NC(=O)c1cc(-c2cccc(-c3ncc(C(=O)N[C@@H](CC(C)C)C(=O)OC)o3)c2)[nH]n1 [Example 3.58, (S)-Methyl 2-(2-(3-(3-(((S)-1-Methoxy-4-Methyl-1-Oxopentan-2-Yl)Carbamoyl)-1H-Pyrazol-5-Yl)Phenyl)Oxazole-5-Carboxamido)-4-Methylpentanoate] |
| 30 | 86 | CCOC(=O)[C@@H](NC(=O)c1cnc(-c2cccc(-c3cc(C(=O)NC(C4CC4)C(F)(F)F)[nH]n3)c2)o1)C(C)C (single isomer, unassigned) [Example 2.3 (i)] |
| 650 | 77 | C[C@@H](NC(=O)c1n[nH]c(-c2cccc(-c3ncc(C(=O)N[C@H](C)C4CC4)o3)c2)n1)C1CC1 [Example 13.2, N-((R)-1-Cyclopropylethyl)-2-(3-(3-(((R)-1-Cyclopropylethyl)Carbamoyl)-1H-1,2,4-Triazol-5-Yl)Phenyl)Oxazole-5-Carboxamide] |
| 450 | 82 | CCOC(=O)C1(C)CCN(C(=O)c2cc(-c3cccc(-c4ncc(C(=O)NC(CC)CC)o4)c3)[nH]n2)C1 (stereo not shown) [Example 3.20, Ethyl 3-Methyl-1-(5-(3-(5-(Pentan-3-Ylcarbamoyl)Oxazol-2-Yl)Phenyl)-1H-Pyrazole-3-Carbonyl)Pyrrolidine-3-Carboxylate] |
| 160 | 88 | CCC(CC)NC(=O)c1cc(-c2cccc(-c3ncc(C(=O)NC(C)(C)CCc4ccccc4)o3)c2)[nH]n1 [Example 3.68, N-(2-Methyl-4-Phenylbutan-2-Yl)-2-(3-(3-(Pentan-3-Ylcarbamoylyl-Carbamoyl)-1H-Pyrazol-5-Yl)Phenyl)Oxazole-5-Carboxamide] |
| 310 | 90 | CCOC(=O)[C@@H](NC(=O)c1cnc(-c2cccc(-c3cc(C(=O)NC(CC)CC)n(CCN4CCOCC4)n3)c2)o1)C(C)C [Example 6.0, (S)-ethyl 3-methyl-2-(2-(3-(1-(2-morpholinoethyl)-5-(pentan-3-ylcarbamoyl)-1H-pyrazol-3-yl)phenyl)oxazole-5-carboxamido)butanoate] |
| 80 | 80 | CCOC(=O)Cn1nc(-c2cccc(-c3ncc(C(=O)NC(CC)CC)o3)c2)nc1C(=O)NC(CC)CC [Example 15.2, Ethyl 2-(5-(Pentan-3-Ylcarbamoyl)-3-(3-(5-(Pentan-3-Ylcarbamoyl)Oxazol-2-Yl)Phenyl)-1 H-1,2,4-Triazol-1-Yl)Acetate] |
